Here are results for one compound from patent US20240190838A1, “LZK-TARGETING DEGRADERS AND METHODS OF USE” (The U.S.A., as represented by the Secretary, Department of …, priority 2020, published 2024).

Where a SMILES comes first, the peptide text is derived from it. The star is where a group is joined. Cbz = O=C(OCc1ccccc1)*

The subject of this experiment is c-MYC. Kind of experiment: c-MYC levels in CAL33 and BICR56 cells depleted of LZK. It counts as cell-based. The following applies: 10 μM for six hours; LZK depleted 48 hours. Here is the method:
CAL33 and BICR56 inducible knockdown cells were generated by SIRION Biotech. MSK921 was generated in-house using lentiviral particles provided by SIRION (generated by transfection of 293TN cells with expression vectors and lentiviral packaging plasmids). Transduction occurred at MOI 5 with 8 μg/mL polybrene. After 24 hours, medium was replaced with fresh medium containing puromycin (Invitrogen) to select for cells that had been effectively transduced. shRNA sequences were […] (sh1; SEQ ID NO: 19) and […] (sh2; SEQ ID NO: 20). The lentiviral expression plasmid was pCLVi(3G)-MCS-Puro, which expresses a doxycycline-responsive transactivator and the shRNA from the same vector. Expression of the transactivator is constitutive, while shRNA expression depends on a doxycycline-inducible promoter. […]
Generally, cells were plated in six-well or 35-mm plates for 24 hours, after which doxycycline was added or treatment with specific inhibitor was administered using 50 FBS media for 48 hours. […] Protein concentrations were determined from the cell lysate by using 660 nm Protein Assay Reagent (Pierce). […] The membranes were incubated with the specific antibodies overnight in […] at 4° C. followed by a 1 hour incubation with the appropriate horseradish peroxidase-conjugated secondary antibodies and signal was detected by chemiluminescence (Thermo Fisher).

`CC(C)C[C@@H](C=O)NC(=O)[C@H](CC(C)C)NC(=O)[C@H](CC(C)C)NC(=O)OCc1ccccc1` [MG132] (Cbz-Leu-Leu-Leu-aldehyde): the “c-MYC levels in LZK-depleted cells” value is “rescued decreases in the c-MYC levels”.
